Measurements as given in US9789096B2, “Methods and compositions for selective and targeted cancer therapy” (Board of Regents of the University of Texas System, priority 2013, dated 2017).

The compounds below were run on H2122 (assay: Cell viability dose-response, H2122). Settings: 12-point dose-response starting at 50 micromolar, 3-fold increments, in duplicate; read-out: toxicity data, H2122.
Assay type: cell-based, human
Procedure: (§1) FIG. 6A. […] Cell viability is plotted vs. compound concentration. Compound was added to cells plated at 15% confluence in 96-well plates in RPMI-1640 media supplemented with 5% Fetal Bovine Serum and 2 mM L-Glutamine. After 4 days of incubation, ATP levels were measured using Cell Titer Glo (Promega). Data are presented as the average of 2 replicates ±SEM.
(§2) Selectivity may be measured by the half maximal inhibitory concentration (IC50), which, as used herein, is a measure of the effectiveness of a compound in killing cells. This quantitative measure indicates how much of a particular compound is needed to kill a particular cell population by half (e.g., as indicated by the amount of ATP). […] The IC50 can be determined by constructing a dose-response curve. The lower the IC50, the higher the potency, and the greater the difference between IC50 values for different cell lines (e.g., sensitive lines vs. insensitive lines, and sensitive lines vs. normal lines) the greater the selectivity. […]
(§3) With this information, we synthesized and tested a series of small molecules derived in conception from the oxalamide and chromone scaffold including N-acyl ureas, as shown in Tables 6-8. Each compound was tested in a 12-point dose-response study starting at 50 micromolar and decreasing in 3-fold increments to sub-nanomolar concentrations, in duplicate. Additionally, one or more additional cell line was tested in the same way.

Row | Structure (SMILES) | IC50 [µM]
1 | COc1ccc(CCNC(=O)C(=O)Nc2cc(Cl)cc(Cl)c2)cc1 [SW206891-2] | ≥ 49.5

Same assay, conditions: Homo sapiens, NCI-H2122, 12-point dose-response starting at 50 micromolar, 3-fold increments, in duplicate; read-out: toxicity data, H2122

Row | Structure (SMILES) | IC50 [µM]
2 | COc1ccc(CCNC(=O)C(=O)Nc2cc(F)c(Br)c(F)c2)cc1 [SW206872-1-A] | ≥ 49.5
3 | COc1ccc(CCNC(=O)C(=O)Nc2cc(Cl)c(Br)c(Cl)c2)cc1 [SW206875-1-A] | 25.3
4 | COc1ccc(CCNC(=O)C(=O)Nc2cc(F)c(F)c(Br)c2)cc1 [SW206876-1-A] | ≥ 49.5
5 | COc1ccc(CCNC(=O)C(=O)Nc2cc(F)ccc2Br)cc1 [SW206877-1-A] | ≥ 49.5
6 | COc1ccc(CCNC(=O)C(=O)Nc2ccc(F)c(Br)c2)cc1 [SW206878-1-A] | 0.384
7 | COc1ccc(CCNC(=O)C(=O)Nc2cc(F)ccc2C)cc1 [SW206879-1-A] | ≥ 49.5
8 | COc1ccc(CCNC(=O)C(=O)Nc2ccc(C)c(F)c2)cc1 [SW206880-1-A] | 0.306
9 | COc1ccc(CCNC(=O)C(=O)Nc2cc(C)cc(F)c2)cc1 [SW206881-1-A] | 9.9
10 | COc1ccc(CCNC(=O)C(=O)Nc2cccc(F)c2C)cc1 [SW206882-1-A] | ≥ 49.5
11 | COc1ccc(CCNC(=O)C(=O)Nc2ccc(C)cc2F)cc1 [SW206883-1-A] | 0.727
12 | COc1ccc(CCNC(=O)C(=O)Nc2cc(F)ccc2F)cc1 [SW206884-1-A] | ≥ 49.5
13 | COc1ccc(CCNC(=O)C(=O)Nc2c(Br)cccc2Br)cc1 [SW206887-1-A] | ≥ 49.5
14 | COc1ccc(CCNC(=O)C(=O)Nc2ccc(Br)cc2Br)cc1 [SW206888-1-A] | ≥ 49.5
15 | COc1ccc(CCNC(=O)C(=O)Nc2cc(Cl)c(F)c(Cl)c2)cc1 [SW206889-1-A] | ≥ 49.5
16 | COc1ccc(CCNC(=O)C(=O)Nc2c(Cl)cccc2Cl)cc1 [SW206890-1-A] | ≥ 49.5
17 | COc1ccc(CCNC(=O)C(=O)Nc2cc(Cl)cc(Cl)c2)cc1 [SW206891-1-A] | ≥ 49.5
18 | COc1ccc(CCNC(=O)C(=O)Nc2ccc(Cl)cc2C)cc1 [SW206926-1] | ≥ 49.5

Row | Structure (SMILES) | IC50 [µM]
19 | COc1ccc(CCNC(=O)C(=O)Nc2ccc(Cl)cc2F)cc1 [SW206951-1] | ≥ 49.5
20 | COc1ccc(CCNC(=O)C(=O)Nc2ccc(Cl)c(F)c2)cc1 [SW206952-1] | 0.294
21 | COc1ccc(CCNC(=O)C(=O)Nc2ccc(Cl)cc2Br)cc1 [SW206953-1] | ≥ 49.5
22 | COc1ccc(CCNC(=O)C(=O)Nc2ccc(Cl)c(Br)c2)cc1 [SW206954-1] | 0.871
23 | COc1ccc(CCNC(=O)C(=O)Nc2ccc(Br)c(Br)c2)cc1 [SW206955-1] | 0.421
24 | COc1ccc(CCNC(=O)C(=O)Nc2ccc(Cl)c(C#N)c2)cc1 [SW206959-1] | 0.398
25 | COc1ccc(CCNC(=O)C(=O)Nc2ccc(Cl)c(Cl)c2)cc1 [SW206960-1] | 0.491
26 | COc1ccc(CCNC(=O)C(=O)Nc2ccc(F)cc2)cc1 [SW206961-1] | 0.286
27 | COc1ccc(CCNC(=O)C(=O)Nc2ccc(Cl)c(C(F)(F)F)c2)cc1 [SW206962-1] | 1.4
28 | COc1ccc(CCNC(=O)C(=O)NCCc2ccc(OC)cc2)cc1 [SW206963-1] | ≥ 49.5
29 | COc1cccc(CCNC(=O)C(=O)Nc2ccc(Cl)cc2)c1 [SW206964-1] | ≥ 49.5
30 | COc1cccc(CCNC(=O)C(=O)Nc2ccc(Cl)cc2C)c1 [SW206965-1] | ≥ 49.5
31 | COc1ccc(CCNC(=O)C(=O)Nc2ccc(C(=O)c3ccccc3)cc2)cc1 [SW206966-1] | 0.085
32 | COc1ccc(CCNC(=O)C(=O)Nc2ccccc2)cc1 [SW206967-1] | 0.456
33 | COc1ccc(CCNC(=O)C(=O)Nc2ccc(OC)cc2C)cc1 [SW206968-1] | ≥ 49.5
34 | COc1ccc(CCNC(=O)C(=O)Nc2ccc(C)c(OC)c2)cc1 [SW206969-1] | ≥ 49.5

Same assay, conditions: Homo sapiens, NCI-H2122, Table 9, competitor; read-out: IC50 to H2122 cells

Row | Structure (SMILES) | IC50 [µM]
35 | COc1ccc(CCNC(=O)C(=O)Nc2ccc(C)cc2F)cc1 [SW206883-1-A] | 0.5
36 | COc1ccc(CCNC(=O)C(=O)Nc2ccc(Cl)c(C#N)c2)cc1 [SW206959-1] | 0.182

What follows are compounds tested on H1819 (assay: Cell viability dose-response, H1819). Settings: 12-point dose-response starting at 50 micromolar, 3-fold increments, in duplicate; read-out: toxicity data, H1819.
Assay type: cell-based, human
Procedure: as §1, §2, §3

Row | Structure (SMILES) | IC50 [µM]
37 | COc1ccc(CCNC(=O)C(=O)Nc2cc(Cl)cc(Cl)c2)cc1 [SW206891-2] | ≥ 49.5

Same assay, conditions: Homo sapiens, NCI-H1819, 12-point dose-response starting at 50 micromolar, 3-fold increments, in duplicate; read-out: toxicity data, H1819

Row | Structure (SMILES) | IC50 [µM]
38 | COc1ccc(CCNC(=O)C(=O)Nc2cc(F)c(Br)c(F)c2)cc1 [SW206872-1-A] | ≥ 49.5
39 | COc1ccc(CCNC(=O)C(=O)Nc2cc(Cl)c(Br)c(Cl)c2)cc1 [SW206875-1-A] | 17.8
40 | COc1ccc(CCNC(=O)C(=O)Nc2cc(F)c(F)c(Br)c2)cc1 [SW206876-1-A] | ≥ 49.5
41 | COc1ccc(CCNC(=O)C(=O)Nc2cc(F)ccc2Br)cc1 [SW206877-1-A] | ≥ 49.5
42 | COc1ccc(CCNC(=O)C(=O)Nc2ccc(F)c(Br)c2)cc1 [SW206878-1-A] | ≥ 49.5
43 | COc1ccc(CCNC(=O)C(=O)Nc2cc(F)ccc2C)cc1 [SW206879-1-A] | ≥ 49.5
44 | COc1ccc(CCNC(=O)C(=O)Nc2ccc(C)c(F)c2)cc1 [SW206880-1-A] | ≥ 49.5
45 | COc1ccc(CCNC(=O)C(=O)Nc2cc(C)cc(F)c2)cc1 [SW206881-1-A] | ≥ 49.5
46 | COc1ccc(CCNC(=O)C(=O)Nc2cccc(F)c2C)cc1 [SW206882-1-A] | ≥ 49.5
47 | COc1ccc(CCNC(=O)C(=O)Nc2ccc(C)cc2F)cc1 [SW206883-1-A] | ≥ 49.5
48 | COc1ccc(CCNC(=O)C(=O)Nc2cc(F)ccc2F)cc1 [SW206884-1-A] | ≥ 49.5
49 | COc1ccc(CCNC(=O)C(=O)Nc2c(Br)cccc2Br)cc1 [SW206887-1-A] | ≥ 49.5
50 | COc1ccc(CCNC(=O)C(=O)Nc2ccc(Br)cc2Br)cc1 [SW206888-1-A] | ≥ 49.5
51 | COc1ccc(CCNC(=O)C(=O)Nc2cc(Cl)c(F)c(Cl)c2)cc1 [SW206889-1-A] | ≥ 49.5
52 | COc1ccc(CCNC(=O)C(=O)Nc2c(Cl)cccc2Cl)cc1 [SW206890-1-A] | ≥ 49.5
53 | COc1ccc(CCNC(=O)C(=O)Nc2cc(Cl)cc(Cl)c2)cc1 [SW206891-1-A] | 43.8
54 | COc1ccc(CCNC(=O)C(=O)Nc2ccc(Cl)cc2C)cc1 [SW206926-1] | ≥ 49.5

Row | Structure (SMILES) | IC50 [µM]
55 | COc1ccc(CCNC(=O)C(=O)Nc2ccc(Cl)cc2F)cc1 [SW206951-1] | ≥ 49.5
56 | COc1ccc(CCNC(=O)C(=O)Nc2ccc(Cl)c(F)c2)cc1 [SW206952-1] | ≥ 49.5
57 | COc1ccc(CCNC(=O)C(=O)Nc2ccc(Cl)cc2Br)cc1 [SW206953-1] | 41.7
58 | COc1ccc(CCNC(=O)C(=O)Nc2ccc(Cl)c(Br)c2)cc1 [SW206954-1] | ≥ 49.5
59 | COc1ccc(CCNC(=O)C(=O)Nc2ccc(Br)c(Br)c2)cc1 [SW206955-1] | ≥ 49.5
60 | COc1ccc(CCNC(=O)C(=O)Nc2ccc(Cl)c(C#N)c2)cc1 [SW206959-1] | ≥ 49.5
61 | COc1ccc(CCNC(=O)C(=O)Nc2ccc(Cl)c(Cl)c2)cc1 [SW206960-1] | ≥ 49.5
62 | COc1ccc(CCNC(=O)C(=O)Nc2ccc(F)cc2)cc1 [SW206961-1] | ≥ 49.5
63 | COc1ccc(CCNC(=O)C(=O)Nc2ccc(Cl)c(C(F)(F)F)c2)cc1 [SW206962-1] | ≥ 49.5
64 | COc1ccc(CCNC(=O)C(=O)NCCc2ccc(OC)cc2)cc1 [SW206963-1] | ≥ 49.5
65 | COc1cccc(CCNC(=O)C(=O)Nc2ccc(Cl)cc2)c1 [SW206964-1] | ≥ 49.5
66 | COc1cccc(CCNC(=O)C(=O)Nc2ccc(Cl)cc2C)c1 [SW206965-1] | ≥ 49.5
67 | COc1ccc(CCNC(=O)C(=O)Nc2ccc(C(=O)c3ccccc3)cc2)cc1 [SW206966-1] | ≥ 49.5
68 | COc1ccc(CCNC(=O)C(=O)Nc2ccccc2)cc1 [SW206967-1] | ≥ 49.5
69 | COc1ccc(CCNC(=O)C(=O)Nc2ccc(OC)cc2C)cc1 [SW206968-1] | ≥ 49.5
70 | COc1ccc(CCNC(=O)C(=O)Nc2ccc(C)c(OC)c2)cc1 [SW206969-1] | 49
